Measured values: article PMC5109907, “Enhancing succinic acid biosynthesis in Escherichia coli by engineering its global transcription factor, catabolite repressor/activator (Cra)” (Scientific Reports, 2016)

Tests used:
[1] = biological target: T1, Cra (catabolite repressor/activator) (Escherichia coli, UniProt P0ACP1, R57K/A58G/G59Q/R60Q/S75H/D148I/R149I, form not given); assay: isothermal titration calorimetry, one-site fit; assay type: binding; conditions: 25 °C; 15 μM protein, 50 mM FBP injected; Tang1541 mutant
T1 construct: full-length, His6-tagged (tag encoded by the 3' primer, C-terminal), pET28a, expressed in E. coli BL21, Ni resin

[2] = biological target: T2, Cra (catabolite repressor/activator) (Escherichia coli, UniProt P0ACP1, R57K/A58T/G59N/R60Q/S75H/D148I/R149I, form not given); assay: isothermal titration calorimetry, one-site fit; assay type: binding; conditions: 25 °C; 15 μM protein, 50 mM FBP injected; Tang1544 mutant
T2 construct: full-length, His6-tagged (tag encoded by the 3' primer, C-terminal), pET28a, expressed in E. coli BL21, Ni resin

[3] = biological target: T3, Cra (catabolite repressor/activator) (Escherichia coli, UniProt P0ACP1); assay: isothermal titration calorimetry, one-site fit; assay type: binding; conditions: 25 °C; 15 μM protein, 50 mM FBP injected
T3 construct: full-length, His6-tagged (tag encoded by the 3' primer, C-terminal), pET28a, expressed in E. coli BL21, Ni resin

Cra wild type = Cra wild type (Escherichia coli, UniProt P0ACP1 1-334); assay: EMSA; no FBP; EMSA: 50 nM oligonucleotide mixture annealed in TE buffer, with or without 1 mM FBP, 15 min at 30 C, nondenaturing 10% polyacrylamide gel, ethidium bromide; binding salt and pH not stated; conditions: protein: recombinant; tags: His6; chain copies: 4; label: none (ethidium bromide stain); blunt
Cra mutant (Tang1544) = Cra mutant (Tang1544) (Escherichia coli, UniProt P0ACP1 1-334, R57K;A58T;G59N;R60Q;S75H;D148I;R149I); assay: EMSA; no FBP; less free DNA than Tang1534; EMSA: 50 nM oligonucleotide mixture annealed in TE buffer, with or without 1 mM FBP, 15 min at 30 C, nondenaturing 10% polyacrylamide gel, ethidium bromide; binding salt and pH not stated; conditions: protein: recombinant; tags: His6; chain copies: 2; label: none (ethidium bromide stain); blunt

| Kd [1] [nM] | Kd [2] [nM] | Kd [3] [nM] | Molecule | binding result (Cra wild type) | binding result (Cra mutant (Tang1544)) |
| --- | --- | --- | --- | --- | --- |
| 130 ± 37 | 95 ± 24 | 1400 | O=P(O)(O)OC[C@H]1OC(O)(COP(=O)(O)O)[C@@H](O)[C@@H]1O (some centres unmarked) [FBP, fructose-1,6-bisphosphate] | – | – |
| – | – | – | aceBAK 18-bp Cra site (dsDNA) DNA 1: TCGTTAAGCGATTCAGCA DNA 2: TGCTGAATCGCTTAACGA | binds | binds |
